Assay results from US20220128542A1, “TREATMENT EFFICIENCY EVALUATION” (TX MEDIC AB, priority 2019, published 2022).

Experiments:
[1] = tested on: Human umbilical vein endothelial cells (HUVECs); experiment: Gene expression array and pathway/upstream regulator analysis in HUVECs (Example 2); format: cell-based; conditions: for differentially expressed genes: HUVEC
Protocol: (§1) For each cell line, n=8×25 cm^2 culture flasks were set up. Two flasks were harvested for each cell type on the day of treatment (24 hours after seeding). This represents the Day0 time point. From the remaining flasks, three flasks were treated with Control Medium and three were treated with Culture Medium (CM) containing LMW-DS to give a final concentration of 0.01 mg/ml. Cells from the treated flasks were collected after 48 hours. Therefore the collected data represent (a) untreated cells (Day0 Controls and Day2 Controls) and (b) cells treated with LMW-DS for 48 hours (Day2 LMW-DS treated).
(§2) 25 cm^2 flasks were coated by adding 2 ml per flask of a solution of 50 μg/ml poly-d-lysine in Hank's balanced salt solution (HBSS) and incubating overnight at 37° C. in the dark. Flasks were washed with cell culture water and air-dried for 30 min in the dark. Flasks were coated by adding 1 ml per flask of a solution of 25 μg/ml laminin in phosphate-buffered saline (PBS) and incubating for 2 hour at 37° C. in the dark. The laminin flasks were washed with PBS three times before plating cells.
Medium 200+Large Vessel Endothelial Supplement (M200+LVES) additive (1:50) was prepared and pre-warmed to 37° C. Cells were thawed in a 37° C. water bath for no longer than 2 min and gently transferred into a 50 ml tube containing 20 ml Dulbecco's Modified Eagle Medium, Nutrient Mixture F-12 (DMEM-F12). The cell suspension was mixed by inverting the tube carefully twice. Cells were spun at 400×g for 10 minutes. Supernatant removed and cells were re-suspended in 10 ml of culture media (M200+LVES additive).
Cells were counted with the Cellometer. 1,000,000 cells/flask were seeded in 25 cm^2 flasks (n=8) and medium was topped up to a total of 5 ml per flask. Cells were incubated at 37° C. with 5% CO2. Cells were allowed to settle for 24 hours before LMW-DS treatment.
(§3) A fresh 100× LMW-DS stock (1.0 mg/ml) was prepared in sterile DMEM-F12. The concentrated drug stock was sterile filtered and added to the respective culture media (19.6 ml CM and 0.4 ml LMW-DS stock solution). The Control was made using 19.6 ml CM and 0.4 ml of DMEM-F12. LMW-DS and CM were added to the respective flasks (5 ml each) to reach the 0.01 mg/ml concentration of LMW-DS in each dish with a total of 10 ml CM each.
(§4) CM was aspirated into a clean and labelled 15 ml Falcon tube. The flasks (without culture medium) were placed into the −80° C. freezer for 30 minutes. The CM in the Falcon tubes was spun at 3000×g for 5 minutes. Supernatant was removed and the small pellet was re-suspended in 2.5 ml Trizol:Water (4:1) solution at room temperature (RT, ˜22° C.).
(§5) The frozen flasks were removed one-by one from the freezer and the Trizol-Water from the appropriate tubes was moved to the flask. Flasks were left at RT for 5 minutes before the content was aspirated back into the 15 ml Falcon tube (after washing the bottom of the flask with the solution thoroughly). The flasks were inspected under the microscope to ensure full removal of cells. The collected lysates in the 15 ml Falcon tubes were placed into the −80° C. freezer.
(§6) Falcon tubes containing the homogenates were removed from the freezer and stored for 5 minutes at RT to permit the complete dissociation of nucleoprotein complexes.
(§7) Two aliquots of 1 ml lysate were removed from each sample and 200 μl of chloroform was added to each (0.2 ml of chloroform per 1 ml of TRIzol Reagent used during the cell lysis step) and the tube was shaken vigorously. Samples were stored at RT for 2-3 minutes and subsequently centrifuged at 12,000×g for 15 minutes at 4° C.
The mixture separated into three layers: a lower red phenol-chloroform phase, an interphase and a colorless upper aqueous phase. The RNA remained in the top aqueous phase, DNA in the white middle (interphase) phase and protein in the pink bottom (organic) phase. The top ¾ of the aqueous phase was transferred to a new clean Eppendorf tube. […]

Mouse motor neurons = experiment: Gene expression array and pathway/upstream regulator analysis in motor neurons (Example 2); format: cell-based; conditions: 0.01 mg/ml
Protocol: as §1, §2
The culture medium was prepared according to Table 5.
Medium (see Table 5) was pre-warmed to 37° C. Cells were thawed in a 37° C. water bath for no longer than 2 min. 9 ml of media was gently added drop-wise. The cell suspension was mixed by inverting the tube carefully twice. The cells were counted with a Cellometer. The cells were centrifuged for 5 minutes at 200×g. Supernatant was removed (to the last 0.5 ml) and cells were gently re-suspended by trituration. The cells from the 8 vials were mixed and distributed equally into the previously coated 25 cm^2 flasks (n=8). Cells were incubated at 37° C. with 5% CO2 for 24 hours before treatment.
as §3, §4, §5, §6, §7
The mixture separated into three layers: a lower red phenol-chloroform phase, an interphase and a colorless upper aqueous phase. The RNA remained in the top aqueous phase, DNA in the white middle (interphase) phase and protein in the pink bottom (organic) phase. The top ¾ of the aqueous phase was transferred to a new clean Eppendorf tube.
The RNA was precipitated from the aqueous phase by adding an equal amount of 100% ethanol. The precipitated RNA was fixed onto a Spin Cartridge, washed twice and dried. […]

Substance: sodium salt of dextran sulfate [LMW-DS]
- differentially expressed genes ([1]; D0 control vs D2 LMW-DS treated, 0.01 mg/ml): 1779 genes
- differentially expressed genes ([1]; D2 control vs D2 LMW-DS treated, 0.01 mg/ml): 76 genes
- cell adhesion ([1]; HUVECs): not affected
- number of genes: no effect / abolished nutrient effect ([1]; HUVECs, 0.01 mg/ml, 48 hours): 67
- number of genes: no effect / total ([1]; HUVECs, 0.01 mg/ml, 48 hours): 67
- number of genes: significant downregulation / abolished nutrient effect ([1]; HUVECs, 0.01 mg/ml, 48 hours): 4
- number of genes: significant downregulation / enhanced response to nutrients ([1]; HUVECs, 0.01 mg/ml, 48 hours): 120
- number of genes: significant downregulation / not different from control ([1]; HUVECs, 0.01 mg/ml, 48 hours): 167
- number of genes: significant downregulation / total ([1]; HUVECs, 0.01 mg/ml, 48 hours): 291
- number of genes: significant upregulation / abolished nutrient effect ([1]; HUVECs, 0.01 mg/ml, 48 hours): 11
- number of genes: significant upregulation / enhanced response to nutrients ([1]; HUVECs, 0.01 mg/ml, 48 hours): 229
- number of genes: significant upregulation / not different from control ([1]; HUVECs, 0.01 mg/ml, 48 hours): 1326
- number of genes: significant upregulation / total ([1]; HUVECs, 0.01 mg/ml, 48 hours): 1566
- number of genes: total / abolished nutrient effect ([1]; HUVECs, 0.01 mg/ml, 48 hours): 82
- number of genes: total / enhanced response to nutrients ([1]; HUVECs, 0.01 mg/ml, 48 hours): 349
- number of genes: total / not different from control ([1]; HUVECs, 0.01 mg/ml, 48 hours): 1493
- number of genes: total / total ([1]; HUVECs, 0.01 mg/ml, 48 hours): 1924
- number of genes: no effect / abolished nutrient effect (Mouse motor neurons; 48 hours): 177
- number of genes: no effect / new effect induced by LMW-DS (Mouse motor neurons; 48 hours): 108
- number of genes: no effect / total (Mouse motor neurons; 48 hours): 285
- number of genes: significant downregulation / abolished nutrient effect (Mouse motor neurons; 48 hours): 47
- number of genes: significant downregulation / enhanced response to nutrients (Mouse motor neurons; 48 hours): 36
- number of genes: significant downregulation / new effect induced by LMW-DS (Mouse motor neurons; 48 hours): 375
- number of genes: significant downregulation / not different from control (Mouse motor neurons; 48 hours): 104
- number of genes: significant downregulation / total (Mouse motor neurons; 48 hours): 562
- number of genes: significant upregulation / abolished nutrient effect (Mouse motor neurons; 48 hours): 40
- number of genes: significant upregulation / enhanced response to nutrients (Mouse motor neurons; 48 hours): 103
- number of genes: significant upregulation / new effect induced by LMW-DS (Mouse motor neurons; 48 hours): 71
- number of genes: significant upregulation / not different from control (Mouse motor neurons; 48 hours): 75
- number of genes: significant upregulation / total (Mouse motor neurons; 48 hours): 289
- number of genes: total / abolished nutrient effect (Mouse motor neurons; 48 hours): 264
- number of genes: total / enhanced response to nutrients (Mouse motor neurons; 48 hours): 139
- number of genes: total / new effect induced by LMW-DS (Mouse motor neurons; 48 hours): 554
- number of genes: total / not different from control (Mouse motor neurons; 48 hours): 179
- number of genes: total / total (Mouse motor neurons; 48 hours): 1136
- differentially expressed genes (Mouse motor neurons; D0 control vs D2 LMW-DS treated): 315 genes
- differentially expressed genes (Mouse motor neurons; second comparison): 425 genes
